Values belong to the molecule of their own block, whether it stands above or below them. Calls of active or inactive are those of the source.
Key:
[1] = NIH-3T3 fibroblast cytotoxicity, dose response, cytotoxicity control, cell-based, fluorescence, Alamar Blue, secondary assay (AID 2327); type: functional;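 further: NIH-3T3 mouse fibroblasts cultured with fluconazole at 8 µg/mL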
[2] = fluconazole-exposed Candida albicans growth modulators – fluorescence, retest, confirmation (AID 2467); type: functional, cell-based
Protein Wnt-3a = Protein Wnt-3a (Mus musculus, UniProt P27467); assay: antagonism of Wnt3a pathway luciferase reporter – Wnt-LIGHT cells, luminescence, selectivity assay for Gli-SUFU antagonist project, dose response (AID 651570); type: functional; settings: read-out: IC50_Mean;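 further: Wnt-LIGHT reporter cells stimulated with conditioned medium from Wnt3a-producing cells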
[3] = molecular target: T1, COUP transcription factor 2 (Homo sapiens, UniProt P24468); assay: Luminescence-based cell-based high throughput dose response assay to identify inhibitors of COUP-TFII (NR2F2).; type: functional;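 further: HEK293 cells transiently cotransfected with COUP-TFII expression vector and reporter; luciferase reporter luminescence driven by COUP-TFII from the pX2-168 reporter plasmid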
T1 sequence (P24468 whole entry): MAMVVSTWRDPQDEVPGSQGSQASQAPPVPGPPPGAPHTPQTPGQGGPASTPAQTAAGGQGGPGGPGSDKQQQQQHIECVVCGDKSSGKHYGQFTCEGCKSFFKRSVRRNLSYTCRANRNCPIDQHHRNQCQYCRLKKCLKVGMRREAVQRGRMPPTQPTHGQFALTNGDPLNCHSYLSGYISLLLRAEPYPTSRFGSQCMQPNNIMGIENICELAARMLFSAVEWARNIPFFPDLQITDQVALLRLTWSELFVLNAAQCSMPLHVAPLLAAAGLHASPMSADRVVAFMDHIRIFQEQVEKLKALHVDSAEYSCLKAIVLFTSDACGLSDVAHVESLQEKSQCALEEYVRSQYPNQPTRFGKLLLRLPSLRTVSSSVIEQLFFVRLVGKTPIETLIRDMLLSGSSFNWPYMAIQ

[4] = molecular target: Voltage-dependent T-type calcium channel subunit alpha-1H (Homo sapiens, UniProt O95180); type: functional;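 further: channel activity triggered by adding a high calcium stimulation buffer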
[5] = molecular target: T2, High affinity choline transporter 1 (Homo sapiens, UniProt Q9GZV3); assay: human choline transporter potentiators, potency – cell-based, 10-point CRC, membrane potential dye, dose response (AID 602376); type: functional
T2 sequence (Q9GZV3 whole entry): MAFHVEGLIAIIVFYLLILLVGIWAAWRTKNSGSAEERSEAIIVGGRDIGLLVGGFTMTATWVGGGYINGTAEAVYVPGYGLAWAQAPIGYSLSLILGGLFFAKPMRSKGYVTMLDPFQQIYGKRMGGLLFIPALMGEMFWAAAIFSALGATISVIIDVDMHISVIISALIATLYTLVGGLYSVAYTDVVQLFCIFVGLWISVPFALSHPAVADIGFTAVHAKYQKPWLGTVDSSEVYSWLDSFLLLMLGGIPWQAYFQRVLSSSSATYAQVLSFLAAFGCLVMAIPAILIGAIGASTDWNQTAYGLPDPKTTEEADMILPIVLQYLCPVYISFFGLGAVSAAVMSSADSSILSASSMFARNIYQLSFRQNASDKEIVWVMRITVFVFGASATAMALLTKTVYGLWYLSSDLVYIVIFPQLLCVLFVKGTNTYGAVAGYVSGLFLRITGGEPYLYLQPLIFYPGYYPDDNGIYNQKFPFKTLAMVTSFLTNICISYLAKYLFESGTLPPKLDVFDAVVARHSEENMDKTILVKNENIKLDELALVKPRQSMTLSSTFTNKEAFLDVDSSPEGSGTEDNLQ

Caspase-3 [6] = molecular target: T3, Caspase-3 (Homo sapiens, UniProt P42574); type: functional
T3 sequence (P42574 whole entry): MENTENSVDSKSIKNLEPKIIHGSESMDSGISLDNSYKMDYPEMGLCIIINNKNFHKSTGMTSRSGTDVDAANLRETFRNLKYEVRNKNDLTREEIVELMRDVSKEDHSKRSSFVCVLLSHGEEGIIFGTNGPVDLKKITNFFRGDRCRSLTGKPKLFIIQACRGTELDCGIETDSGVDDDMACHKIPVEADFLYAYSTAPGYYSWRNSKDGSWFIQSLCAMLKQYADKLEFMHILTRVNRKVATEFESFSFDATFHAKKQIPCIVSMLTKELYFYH

[7] = molecular target: T4, Sentrin-specific protease 7 (Homo sapiens, UniProt Q9BQF6); type: functional;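 further: Luminescence-based dose-response confirmation of ultra-high-throughput screening hits, measuring inhibition of SENP7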
T4 sequence (Q9BQF6 whole entry): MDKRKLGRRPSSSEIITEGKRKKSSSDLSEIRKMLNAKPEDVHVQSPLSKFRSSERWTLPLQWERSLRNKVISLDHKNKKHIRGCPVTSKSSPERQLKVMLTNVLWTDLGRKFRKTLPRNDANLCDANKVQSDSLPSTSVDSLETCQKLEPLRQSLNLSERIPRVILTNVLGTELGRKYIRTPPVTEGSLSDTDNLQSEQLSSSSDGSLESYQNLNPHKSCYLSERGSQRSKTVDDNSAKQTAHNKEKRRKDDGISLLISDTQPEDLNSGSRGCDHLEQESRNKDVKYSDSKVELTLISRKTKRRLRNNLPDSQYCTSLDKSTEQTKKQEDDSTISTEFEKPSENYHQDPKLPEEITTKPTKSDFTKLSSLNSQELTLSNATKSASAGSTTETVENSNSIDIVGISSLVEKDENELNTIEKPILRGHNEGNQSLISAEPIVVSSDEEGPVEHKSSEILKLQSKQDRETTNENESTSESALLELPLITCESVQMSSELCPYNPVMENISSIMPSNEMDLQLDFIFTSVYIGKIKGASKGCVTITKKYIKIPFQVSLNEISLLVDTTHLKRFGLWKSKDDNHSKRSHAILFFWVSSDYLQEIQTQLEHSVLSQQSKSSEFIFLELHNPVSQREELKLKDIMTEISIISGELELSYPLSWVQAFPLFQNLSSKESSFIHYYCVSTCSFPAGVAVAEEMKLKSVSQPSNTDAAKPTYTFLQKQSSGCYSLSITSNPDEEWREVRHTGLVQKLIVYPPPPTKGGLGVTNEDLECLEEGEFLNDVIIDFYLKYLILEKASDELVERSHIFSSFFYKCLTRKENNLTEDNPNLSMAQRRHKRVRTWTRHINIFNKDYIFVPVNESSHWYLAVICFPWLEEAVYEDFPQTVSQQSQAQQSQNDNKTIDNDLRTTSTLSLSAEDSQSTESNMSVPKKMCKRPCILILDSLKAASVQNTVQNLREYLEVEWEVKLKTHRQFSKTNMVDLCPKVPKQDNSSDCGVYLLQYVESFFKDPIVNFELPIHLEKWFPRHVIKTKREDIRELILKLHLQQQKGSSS

[8] = molecular target: T5, Sentrin-specific protease 6 (Homo sapiens, UniProt Q9GZR1); type: functional
T5 sequence (Q9GZR1 whole entry): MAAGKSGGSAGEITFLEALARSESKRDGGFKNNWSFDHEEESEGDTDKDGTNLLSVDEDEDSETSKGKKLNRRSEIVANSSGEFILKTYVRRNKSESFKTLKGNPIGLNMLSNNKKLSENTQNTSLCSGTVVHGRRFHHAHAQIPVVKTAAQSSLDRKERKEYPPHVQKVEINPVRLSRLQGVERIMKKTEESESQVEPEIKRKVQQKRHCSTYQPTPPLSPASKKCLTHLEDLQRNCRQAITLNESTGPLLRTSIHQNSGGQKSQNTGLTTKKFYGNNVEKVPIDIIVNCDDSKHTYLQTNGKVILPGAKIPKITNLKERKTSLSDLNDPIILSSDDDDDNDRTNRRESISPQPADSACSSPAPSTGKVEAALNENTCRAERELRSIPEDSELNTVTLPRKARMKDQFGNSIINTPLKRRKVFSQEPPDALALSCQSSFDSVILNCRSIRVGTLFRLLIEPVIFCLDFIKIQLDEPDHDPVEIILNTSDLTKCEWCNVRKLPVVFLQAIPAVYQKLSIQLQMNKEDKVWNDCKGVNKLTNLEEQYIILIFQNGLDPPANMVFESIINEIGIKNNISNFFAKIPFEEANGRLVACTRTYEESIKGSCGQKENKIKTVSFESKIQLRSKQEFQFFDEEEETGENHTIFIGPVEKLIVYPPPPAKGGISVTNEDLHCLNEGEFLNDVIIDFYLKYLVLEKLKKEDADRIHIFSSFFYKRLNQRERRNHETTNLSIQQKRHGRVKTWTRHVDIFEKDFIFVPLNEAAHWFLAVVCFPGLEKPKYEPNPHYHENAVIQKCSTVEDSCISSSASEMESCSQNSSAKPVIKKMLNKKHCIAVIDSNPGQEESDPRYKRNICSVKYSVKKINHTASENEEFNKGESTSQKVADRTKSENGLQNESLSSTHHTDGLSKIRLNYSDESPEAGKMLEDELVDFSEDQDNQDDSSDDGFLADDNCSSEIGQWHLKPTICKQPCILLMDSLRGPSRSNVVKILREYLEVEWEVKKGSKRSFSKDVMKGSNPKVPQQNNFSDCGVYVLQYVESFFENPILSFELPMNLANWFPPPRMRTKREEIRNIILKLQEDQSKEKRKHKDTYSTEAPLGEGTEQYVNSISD

[9] = molecular target: T6, Sentrin-specific protease 8 (Homo sapiens, UniProt Q96LD8); type: functional;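 further: luminescence read-out of SENP8 inhibition, dose-response confirmation following an ultra-high-throughput screen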
T6 sequence (Q96LD8 whole entry): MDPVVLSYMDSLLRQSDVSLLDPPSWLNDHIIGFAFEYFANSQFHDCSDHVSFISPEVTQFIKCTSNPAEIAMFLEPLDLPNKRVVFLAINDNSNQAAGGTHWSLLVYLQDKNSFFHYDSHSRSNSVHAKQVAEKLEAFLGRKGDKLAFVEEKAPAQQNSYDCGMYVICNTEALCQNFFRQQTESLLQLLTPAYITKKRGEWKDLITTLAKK

[10] = molecular target: T6, Sentrin-specific protease 8; assay: inhibition of human SENP8 cleavage activity – biochemical, luminescence, SAR follow-up (AID 504501); type: functional
Caspase-3 [11] = molecular target: T3, Caspase-3; assay: SAR Analysis of small molecule inhibitors of Sentrin-specific proteases (SENPs) using a Caspase-3 Selectivity assay. [Related pubchem assays (depositor defined):AID2540, AID2599, AID434973, AID489001]; type: functional
[12] = molecular target: T5, Sentrin-specific protease 6; assay: SAR Analysis of small molecule inhibitors of Sentrin-specific protease 6 (SENP6) using a Luminescent assay. [Related pubchem assays (depositor defined):AID2582, AID2599]; type: functional
[13] = molecular target: T4, Sentrin-specific protease 7; assay: inhibition of human SENP7 cleavage activity – biochemical, luminescence, SAR follow-up (AID 504497); type: functional
[14] = molecular target: Low molecular weight phosphotyrosine protein phosphatase (Homo sapiens, UniProt P24666); type: functional; settings: read-out: IC50_Mean;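 further: Dose-response confirmation assay measuring inhibition of LMPTP enzyme activity by fluorescence intensity read-out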
Caspase-6 = molecular target: T7, Caspase-6 (Homo sapiens, UniProt P55212); assay: inhibition of CASP6 peptide cleavage – biochemical, VEID-R110 fluorescence, cherry-pick, dose response (AID 720632)
T7 sequence (P55212 whole entry): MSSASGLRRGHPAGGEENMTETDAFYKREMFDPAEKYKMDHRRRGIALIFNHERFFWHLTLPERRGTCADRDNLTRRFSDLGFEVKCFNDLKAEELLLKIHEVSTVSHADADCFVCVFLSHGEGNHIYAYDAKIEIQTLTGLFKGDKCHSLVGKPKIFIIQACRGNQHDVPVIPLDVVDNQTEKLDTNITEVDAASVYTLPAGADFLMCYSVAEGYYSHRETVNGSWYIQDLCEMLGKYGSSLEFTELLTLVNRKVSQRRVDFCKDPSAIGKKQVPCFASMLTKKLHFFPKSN

Caspase-7 = Caspase-7 (Homo sapiens, UniProt P55210); assay: caspase-7 enzyme inhibition, selectivity check – biochemical, DEVD-R110 fluorescence, cherry-pick, selectivity assay for caspase-6 inhibitor project, dose response (AID 743295); type: functional
Caspase-7, sequence (P55210 24-198 limits assumed): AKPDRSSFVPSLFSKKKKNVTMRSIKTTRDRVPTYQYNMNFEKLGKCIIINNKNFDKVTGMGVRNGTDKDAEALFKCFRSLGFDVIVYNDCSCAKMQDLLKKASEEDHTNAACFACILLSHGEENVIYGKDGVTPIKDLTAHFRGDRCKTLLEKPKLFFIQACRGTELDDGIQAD
Caspase-7, sequence (P55210 207-303 limits assumed): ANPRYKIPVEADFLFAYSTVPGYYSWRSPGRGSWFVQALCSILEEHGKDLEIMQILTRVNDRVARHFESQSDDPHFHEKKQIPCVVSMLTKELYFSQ

Protein Wnt-3a, sequence (P27467 whole entry): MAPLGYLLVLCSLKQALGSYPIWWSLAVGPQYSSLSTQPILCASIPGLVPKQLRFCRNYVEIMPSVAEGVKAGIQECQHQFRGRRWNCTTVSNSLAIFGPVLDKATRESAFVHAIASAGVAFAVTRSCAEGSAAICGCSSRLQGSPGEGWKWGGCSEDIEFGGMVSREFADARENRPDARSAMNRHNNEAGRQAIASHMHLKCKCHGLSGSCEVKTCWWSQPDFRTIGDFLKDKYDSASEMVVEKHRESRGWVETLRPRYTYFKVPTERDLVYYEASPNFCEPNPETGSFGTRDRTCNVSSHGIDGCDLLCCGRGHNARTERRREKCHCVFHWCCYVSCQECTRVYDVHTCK
Low molecular weight phosphotyrosine protein phosphatase, sequence (P24666 whole entry): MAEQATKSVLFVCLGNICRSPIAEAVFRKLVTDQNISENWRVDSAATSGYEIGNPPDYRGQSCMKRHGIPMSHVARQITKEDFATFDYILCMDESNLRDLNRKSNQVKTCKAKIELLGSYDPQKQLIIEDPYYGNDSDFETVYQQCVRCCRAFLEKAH
Voltage-dependent T-type calcium channel subunit alpha-1H, sequence (O95180 whole entry): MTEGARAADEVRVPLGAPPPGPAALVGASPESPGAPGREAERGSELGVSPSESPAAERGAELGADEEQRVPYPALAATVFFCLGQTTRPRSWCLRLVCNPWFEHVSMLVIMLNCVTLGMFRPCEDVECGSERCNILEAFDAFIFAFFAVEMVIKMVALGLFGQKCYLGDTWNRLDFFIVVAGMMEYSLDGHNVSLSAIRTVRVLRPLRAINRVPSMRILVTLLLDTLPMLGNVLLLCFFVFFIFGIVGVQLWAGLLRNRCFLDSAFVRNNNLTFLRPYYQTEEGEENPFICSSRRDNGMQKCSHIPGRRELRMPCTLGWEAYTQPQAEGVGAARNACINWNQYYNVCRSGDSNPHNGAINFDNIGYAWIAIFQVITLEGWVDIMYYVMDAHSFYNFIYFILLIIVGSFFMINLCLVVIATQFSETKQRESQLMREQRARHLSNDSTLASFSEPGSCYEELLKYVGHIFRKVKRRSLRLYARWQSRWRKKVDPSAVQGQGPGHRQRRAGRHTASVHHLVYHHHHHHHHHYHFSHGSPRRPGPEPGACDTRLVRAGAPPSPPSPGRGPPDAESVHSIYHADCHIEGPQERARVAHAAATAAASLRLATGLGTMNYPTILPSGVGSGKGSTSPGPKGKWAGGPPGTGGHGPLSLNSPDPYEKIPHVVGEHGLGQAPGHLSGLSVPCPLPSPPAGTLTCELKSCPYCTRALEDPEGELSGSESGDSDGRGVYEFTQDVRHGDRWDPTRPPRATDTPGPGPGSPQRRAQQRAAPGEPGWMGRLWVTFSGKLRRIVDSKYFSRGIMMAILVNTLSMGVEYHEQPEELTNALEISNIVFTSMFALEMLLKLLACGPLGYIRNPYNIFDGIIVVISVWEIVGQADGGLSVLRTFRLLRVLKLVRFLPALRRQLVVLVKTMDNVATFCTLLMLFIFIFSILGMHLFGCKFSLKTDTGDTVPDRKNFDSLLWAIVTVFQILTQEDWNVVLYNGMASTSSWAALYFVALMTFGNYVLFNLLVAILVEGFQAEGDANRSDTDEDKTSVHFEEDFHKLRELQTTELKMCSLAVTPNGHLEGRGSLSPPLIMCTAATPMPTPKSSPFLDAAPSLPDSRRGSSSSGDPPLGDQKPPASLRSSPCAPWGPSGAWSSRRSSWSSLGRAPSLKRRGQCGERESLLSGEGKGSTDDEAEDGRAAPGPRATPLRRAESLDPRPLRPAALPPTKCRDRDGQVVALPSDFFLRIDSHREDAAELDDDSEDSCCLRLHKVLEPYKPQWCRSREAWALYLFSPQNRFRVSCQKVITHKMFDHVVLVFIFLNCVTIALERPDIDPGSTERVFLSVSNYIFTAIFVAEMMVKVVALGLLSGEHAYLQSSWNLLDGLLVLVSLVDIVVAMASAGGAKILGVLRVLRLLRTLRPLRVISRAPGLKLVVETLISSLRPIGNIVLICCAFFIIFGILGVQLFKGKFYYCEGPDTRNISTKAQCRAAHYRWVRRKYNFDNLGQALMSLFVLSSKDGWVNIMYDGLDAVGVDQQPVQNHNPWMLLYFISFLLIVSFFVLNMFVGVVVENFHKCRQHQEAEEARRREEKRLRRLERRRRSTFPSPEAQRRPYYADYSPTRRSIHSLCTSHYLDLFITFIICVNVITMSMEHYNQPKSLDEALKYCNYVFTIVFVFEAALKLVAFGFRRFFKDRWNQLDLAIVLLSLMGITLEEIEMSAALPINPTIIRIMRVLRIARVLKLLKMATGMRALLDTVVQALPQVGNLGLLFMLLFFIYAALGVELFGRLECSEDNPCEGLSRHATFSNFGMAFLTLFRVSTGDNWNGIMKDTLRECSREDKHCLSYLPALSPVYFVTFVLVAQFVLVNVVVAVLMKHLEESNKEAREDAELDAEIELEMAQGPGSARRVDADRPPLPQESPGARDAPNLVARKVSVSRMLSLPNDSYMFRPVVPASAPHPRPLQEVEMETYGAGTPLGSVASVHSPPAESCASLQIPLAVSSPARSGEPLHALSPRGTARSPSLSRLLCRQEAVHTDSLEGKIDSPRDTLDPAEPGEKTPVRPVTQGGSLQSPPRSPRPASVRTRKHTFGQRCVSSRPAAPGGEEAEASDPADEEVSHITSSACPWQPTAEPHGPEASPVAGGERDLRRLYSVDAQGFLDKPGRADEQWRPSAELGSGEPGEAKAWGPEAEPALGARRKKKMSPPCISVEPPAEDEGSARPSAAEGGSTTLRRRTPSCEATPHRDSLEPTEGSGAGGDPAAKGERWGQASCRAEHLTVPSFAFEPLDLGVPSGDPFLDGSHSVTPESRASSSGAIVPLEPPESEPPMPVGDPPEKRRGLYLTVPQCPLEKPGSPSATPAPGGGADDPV

Compound: Cc1nn(C)c(C)c1/C=C/C(=O)c1ccc(Cl)cc1Cl
EC50 [1]: 84.9 µM (inconclusive)
EC50 [2]: 3.56 µM (active)
IC50 (Protein Wnt-3a): 2.49 µM (active)
IC50 [3]: 14.8 µM (inactive)

Compound: Fc1ccc(C(c2nnnn2C2CCCC2)N(Cc2ccco2)CC2CCCO2)cc1 (configuration not stated)
EC50 [4]: 3.83 µM (active)
EC50 [5]: 14.5 µM (active)

IC50 (Caspase-3 [6]): 18.6 µM (active)
IC50 [7]: 2.41 µM (active)
IC50 [8]: > 100 µM (inactive)
IC50 (Caspase-3 [11]): 9.05 µM (active)
IC50 [12]: > 99 µM (inactive)
IC50 [13]: 2.33 µM (active)
Compound: Cc1ccc(NC(=O)C(=O)c2c[nH]c3ccccc23)cc1
IC50 [9]: > 100 µM (inactive)
IC50 [10]: > 99 µM (inactive)

IC50 [14]: 39.9 µM (inactive)
AC50 (Caspase-6): 1.6 µM (active)
AC50 (Caspase-7): > 70 µM (inactive)
Compound: CCCCNC(=O)c1nc(C2CCNCC2)oc1-c1cccc(C(F)(F)F)c1

Source: ChEMBL document CHEMBL1201862, “PubChem BioAssay data set” (2004)
